The values that follow come from EP0102319B1, “Prophylactic and therapeutic use of muramyl peptides and their analogues against viral infections” (CIBA-GEIGY AG, priority 1982, dated 1984).

One assay deals with Influenza A/Texas/1/77. The assay can be described thus: Lethal intranasal virus infection of mice, single dose of active substance, survival. Type of assay: in vivo, Mäuse. On the procedure: (§1) Gruppen von 30, 40 oder 50 weiblichen MF-2f SPF-Mäusen mit einem Körpergewicht von 14-16 g bzw. 12-14 g bei den Versuchen mit Herpes simplex 1 Viren werden unter leichter Narkose mit einem Gemisch aus gleichen Teilen Aether, Äthanol und Chloroform mit letalen Dosen (ungefähr eine LD80-90; Anzahl der plaque forming units [PFU] siehe Tabelle 1) der untengenannten Viren-Stämme in Form von je 0,05 ml einer Suspension der Viren intranasal infiziert.
(§2) 10 oder 20 von diesen Mäusen werden zum unten angegebenen Zeitpunkt [Tage] bezogen auf den Tag der Infektion einmal (Einzeldosis) die in Tabelle 1 genannten Mengen der Wirksubstanz N-Acetyl- muramyl-L-alanyl-D-isoglutaminyl-L-alanin-2-(1.2-dipalmitoyl-sn-glycero-3-hydroxyphosphoryioxy)-äthylamid-natriumsalz (Verbindung I) in 0,05 bzw. 0,1 ml Phosphat-gepufferter-Salzlösung (PBS) bzw. in 0,2 ml einer 0,05 Gew.-%igen Lösung von Natriumcarboxymethylcellulose in doppelt destilliertem Wasser im Falle von intranasaler, intravenöser bzw. oraler Applikation auf die in Tabelle 1 genannte Art appliziert.
(§3) Die restlichen der obengenannten Mäuse, d. h. 20 oder 30, dienen zur Kontrolle, d. h. sie bleiben entweder unbehandelt oder erhalten ein Placebo.
(§4) Die intranasale Applikation von Verbindung I wird unter leichter Narkose mit einem Gemisch aus gleichen Teilen Diäthyläther, Aethanol und Chloroform durchgeführt.

Assay [1] concerns Herpesvirus hominis 1/TUP. Briefly: Lethal intranasal virus infection of mice, single dose of active substance, protection. Type of assay: in vivo, Mäuse. As to conditions: 10 mg/kg, day -7, intranasal infection (Figur 3). The method, then:
as §1, §2, §3, §4

[2] abbreviates: intranasal, 1 mg/kg, single dose on day '-' (number not given) before infection.
The mark [3] stands for this setting: oral, 10 mg, single dose on day +7 after infection.

Regarding `CCCCOC(=O)[C@@H](CCC(N)=O)NC(=O)[C@H](C)NC(=O)[C@@H](C)O[C@H]1[C@H](O)[C@@H](CO)OC(O)[C@@H]1NC(C)=O` (stereo partly drawn) [Verbindung II, N-Acetyl-muramyl-L-alanyl-D-glutamin-n-butylester], the Schutzwirkung entry with Influenza A/Texas/1/77 (setting [2]) is recorded as “keinerlei Schutzwirkung”; in assay [1], “Keinerlei Schutzwirkung”. The “outcome of infection (death of mice)” value with Influenza A/Texas/1/77 (setting [3]) is “sämtliche Mäuse an der Infektion mit Influenza A/Texas/1/77 sterben”.

With `CCCCCCCCCCCCCCCC(=O)OC[C@H](COP(=O)(O)OCCNC(=O)[C@H](C)NC(=O)CC[C@@H](NC(=O)[C@H](C)NC(=O)[C@@H](C)O[C@H]1[C@H](O)[C@@H](CO)OC(O)[C@@H]1NC(C)=O)C(N)=O)OC(=O)CCCCCCCCCCCCCCC` (stereo partly drawn) [Verbindung I, N-Acetyl-muramyl-L-alanyl-D-isoglutaminyl-L-alanin-2-(1,2-dipalmitoyl-sn-glycero-3-hydroxyphosphoryloxy)-äthylamid], the “Mäuse die Infektion überleben” value was 90% in the assay on Influenza A/Texas/1/77 (setting [2]) and 65% in the assay on Influenza A/Texas/1/77 (setting [3]).
